In publication PMC4500090 (Biochemical and biophysical research communications, 2015):
Where two headings read alike, the source gives them in different places.

What was measured:
Aurora B [1] = conditions: read-out: IC50 Aurora B; cited from earlier work
MEKK2 [2] = molecular target: T1, MEKK2 (Homo sapiens, UniProt Q9Y2U5); assay: MEKK2 intrinsic ATPase activity assay; assay type: biochemical
T1 sequence (Q9Y2U5 1-619): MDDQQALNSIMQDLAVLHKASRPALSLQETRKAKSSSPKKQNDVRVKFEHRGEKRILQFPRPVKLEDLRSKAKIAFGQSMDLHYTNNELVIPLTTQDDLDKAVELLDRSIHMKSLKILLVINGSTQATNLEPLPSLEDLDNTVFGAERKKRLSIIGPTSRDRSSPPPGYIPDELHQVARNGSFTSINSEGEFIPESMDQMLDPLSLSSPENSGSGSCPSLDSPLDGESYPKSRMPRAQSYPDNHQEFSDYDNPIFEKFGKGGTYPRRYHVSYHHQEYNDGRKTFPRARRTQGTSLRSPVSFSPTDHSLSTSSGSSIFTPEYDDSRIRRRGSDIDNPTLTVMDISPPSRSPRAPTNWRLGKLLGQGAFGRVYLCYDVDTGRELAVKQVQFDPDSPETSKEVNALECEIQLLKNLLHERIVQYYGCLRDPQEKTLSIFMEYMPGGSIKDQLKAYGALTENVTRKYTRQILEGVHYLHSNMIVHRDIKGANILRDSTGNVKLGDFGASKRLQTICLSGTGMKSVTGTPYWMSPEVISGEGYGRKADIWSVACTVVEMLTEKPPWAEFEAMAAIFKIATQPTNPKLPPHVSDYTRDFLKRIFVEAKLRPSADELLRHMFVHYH

Abl (T315I) mutant = conditions: read-out: IC50 Abl (T315I) mutant; cited from earlier work
Aurora A = conditions: read-out: IC50 Aurora A; cited from earlier work
10 other kinases = conditions: read-out: IC50 10 other kinases; cited from earlier work
JAK3 = conditions: read-out: IC50 JAK3; cited from earlier work
MEKK2 [3] = molecular target: T1, MEKK2; assay: MEKK2 transphosphorylation slot blot assay using MKK6 as a substrate; assay type: biochemical
Aurora B [4] = conditions: read-out: IC50 Aurora B; cited from earlier work; remark: listed apart in the source
CDK3 = conditions: read-out: IC50 CDK3; cited from earlier work
CDK2 = conditions: read-out: IC50 CDK2; cited from earlier work
CDK1 = conditions: read-out: IC50 CDK1; cited from earlier work

Row | SMILES | IC50 (Aurora B [1]) | IC50 (MEKK2 [2]) | IC50 (Abl (T315I) mutant) | IC50 (Aurora A) | IC50 (10 other kinases) | IC50 (JAK3) | IC50 (MEKK2 [3]) | IC50 (Aurora B [4]) | IC50 (CDK3) | IC50 (CDK2) | IC50 (CDK1)
1 | O=C(Nc1c[nH]nc1-c1nc2ccc(CN3CCOCC3)cc2[nH]1)NC1CC1 [AT9283] | […] | […] | 0.004 µM | […] | […] | […] | 0.0047 ± 0.0009 µM | – | – | – | –
2 | NC(=O)Nc1cc(-c2cccc(F)c2)sc1C(=O)N[C@H]1CCCNC1 [AZD7762] | – | 0.02 ± 0.007 µM | – | – | – | – | 0.014 ± 0.002 µM | – | – | – | –
3 | CCS(=O)(=O)Nc1ccc2c(c1)/C(=C(/Nc1ccc(CN3CCCCC3)cc1)c1ccccc1)C(=O)N2 [Hesperadin] | – | 0.06 ± 0.025 µM | – | – | – | – | 0.034 ± 0.011 µM | 0.25 µM | – | – | –
4 | Nc1nc(Nc2ccc(S(N)(=O)=O)cc2)nn1C(=O)c1c(F)cccc1F [JNJ-7706621] | – | 0.024 ± 0.008 µM | – | – | – | – | 0.017 ± 0.002 µM | – | […] | […] | […]
